Data as given in US20230332103A1, “Methods and Compositions for Generating Human Forebrain Neural Progenitor Cells and for Maturation Thereof to Parvalbumin+ Interneurons” (Trailhead Biosystems Inc., priority 2021, published 2023).
“Also recorded” adds a separate entry of the source.

Experiments:
[1] = system: human pluripotent stem cells; assay: HD-DoE 12-factor experiment for stage 1 recipe, gene expression by quantitative PCR after 3 days; format: cell-based; settings: for factor contribution on expression of SIX3: model optimized for maximal expression of SIX3, 3-day treatment; for factor contribution on expression of FEZF2: model optimized for maximum expression of FEZF2
Excerpt: This example utilizes a method of High-Dimensional Design of Experiments (HD-DoE), as previously described in Bukys et al. (2020) […] 23:101346. The method employs computerized design geometries to simultaneously test multiple process inputs and offers mathematical modeling of a deep effector/response space. The method allows for finding combinatorial signaling inputs that control a complex process, such as during cell differentiation. It allows testing of multiple plausible critical process parameters, as such parameters impact output responses, such as gene expression. Because gene expression provides hallmark features of the phenotype of, for example, a human cell, the method can be applied to identify, and understand, which signaling pathways control cell fate. In the current example, the HD-DOE method was applied with the intent to find conditions for induction of […] neural progenitor-expressed genes, directly from the pluripotent stem cell state. To develop the recipe for each stage, the impact of agonists and antagonists of multiple signaling pathways (herein called effectors) on the expression of two sets of 53 pre-selected genes, after a 3-day treatment, has been tested and modeled. These effectors are small molecules or proteins that are commonly used during stepwise differentiation of stem cells to specific fates. Choice of the effectors were based on current literature on neural induction in forebrain region of developing brain and differentiation of stem cells to neural progenitors. To test the effectors, experiments with at least 8 factors were designed that can assess the response of cells to 48 or more different combinations of effectors in a range of concentrations. To analyze the models, we focused on expression of genes involved in development and patterning of the anterior neuroectoderm and forebrain including OTX2 (Hoch et al. (2015) Cell Reports 12:482-494), SIX3 (Lagutin et al. (2003) Genes & Development 17:368-379) and FEZF2 (Zhang et al. (2014) Development 141:4794-[…]). At later stages we focused on dorsoventral patterning of telencephalon and gene expressed in ventral forebrain including NKX2-1 and absence of PAX6 which is a dorsal forebrain marker (Stoykova et al. (2000) J. Neurosci. 20:8042-8050). The impact of each effector on gene expression level is defined by a parameter called factor contribution that is calculated for each effector during the modeling. To identify the recipe for stage 1 of differentiation, 96 different combinations of effectors generated using Design-of-Experiments compression through D-optimality were robotically prepared. The effector combinations were prepared in a basal media and were subsequently added to the cells, which were then allowed to differentiate. Three days later RNA extraction was performed, and gene expression was obtained using quantitative PCR analysis. […] Solutions within the tested space could then be explored to address desirability. Optimizing for maximal expression of SIX3 at 3300 and FEZF2 1355 expression values led to robust solutions. This model was derived from testing 12 effectors including AGN193109, LDN193189, CHIR99021, XAV939, IGF2, Purmorphamine, 4-oxo-RA, TTNPB, SR11237, FGF8, PD0325901 and […]. […] The model was also optimized for maximum expression of FEZF2 separately at 3576 expression value to find any additional factors that can boost expression of forebrain genes. […] To find the set of factors that have the potential to optimize all 3 genes in this experiment, a new assessment was done through dynamic profile analysis with focus on maximal expression of OTX2, FEZF2 and SIX3.

[2] = system: stage 2 neural stem cells; assay: factor criticality analysis (dynamic profile analysis) of stage 3 recipe; format: cell-based, human; design: unit not given here; settings: other five factors present
Protocol: To assess the impact of the elimination of each validated factor, dynamic profile analysis was used and compared the expression level of genes of interest in absence of each finalized factor while others are present. […] In the stage 3 recipe, each of the six finalized factors were removed while the other five factors remained present and the expression levels of ASCL1, DLX1 and LHX6 were assessed compared to the presence of all six factors. […] As expected, in the absence of IGF-1, the value of DLX1 increases to 410, however, ASCL1 and LHX6 decreased to 1390 and 220, respectively.

[3] = system: stage 2 neural stem cells (cells treated with stage 1 and stage 2 media); assay: HD-DoE experiment for stage 3 recipe, optimized for ASCL1; format: cell-based, human
Protocol: To further guide the cells to medial ganglionic eminence progenitor fate, an additional HD-DoE experiment was performed for 3 days on cells that were treated with stage 1 and stage 2 media for total of 6 days prior to start of the experiment. This experiment included 13 effectors, LDN193189, A8301, GNF5837, AZD3147, GSI-XX, Takinib, PD0325901, PD173074, BLU9931, IGF-1, MHY1485, Purmorphamine and Prostratin. In this model, we focused on maximum expression of genes expressed in neuronal progenitor cells in medial ganglionic eminence (MGE) region including ASCL1, LHX6 and DLX1 (Silberberg et al. (2016) Neuron 92:59-74). When the model was optimized for maximum expression of ASCL1 at 1700, A8301, GSI-XX, Purmorphamine and Takinib, which is an inhibitor of TAK1 pathway, had the highest factor contributions, 18.1, 14.1, 12.7 and 10.1 respectively. […]

[4] = dynamic profile analysis, FIG. 4
[5] = dynamic profile analysis, FIG. 10

Which “factor contribution, important input for high expression of SIX3” value ([1]; FIG. 2 legend, model optimized for maximum expression of SIX3 as printed) does the source give for `c1ccc2c(-c3cnn4cc(-c5ccc(N6CCNCC6)cc5)cnc34)ccnc2c1` [LDN193189] here?
The value was 24.9.

What about the “impact on expression of OTX2” value [1, 4] of the same compound?
Its value is “positive impact”.

And the “factor contribution on expression of OTX2” value ([1]; positive impact, model of maximum expression of OTX2)?
The value was 8.

And the “factor contribution on expression of SIX3” value ([1]; positive impact)?
The value was 16.

What about the “factor contribution on expression of FEZF2” value ([1]; positive impact) of the same compound?
The value was 25.

With `c1ccc2c(Oc3nc(Nc4ccc(N5CCOCC5)cc4)c4ncn(C5CCCCC5)c4n3)cccc2c1` [Purmorphamine] as the compound, how does the “expression level of DLX1 when the effector is removed” value ([2]; 220 with all six factors) read?
The value was “stayed the same”.

What about the “expression level of LHX6 when the effector is removed” value ([2]; 240 with all six factors) of the same compound?
Its value is 190.

And the “expression level of ASCL1 when the effector is removed” value ([2]; 1650 with all six factors)?
Its value is 1200.

And the “impact on expression of FEZF2” value [1, 4]?
Its value is “positive impact”.

And the “impact on expression of OTX2” value [1, 4]?
Its value is “negative effect”.

What about the “impact on expression of SIX3” value [1, 4] of the same compound?
The value was “positive impact”.

What about the “factor contribution on expression of SIX3” value ([1]; positive impact) of the same compound?
Its value is 5.

What about the “factor contribution on expression of FEZF2” value ([1]; positive impact) of the same compound?
Its value is 7.

What about the “impact on expression of ASCL1” value [3, 5] of the same compound?
Its value is “positive trends; also recorded: Positive impact”.

And the “impact on expression of DLX1” value [3, 5]?
The value was “did not have a significant negative impact”.

What about the “impact on expression of LHX6” value [3, 5] of the same compound?
The value was “positive trends; also recorded: Positive impact”.

What about the “factor contribution on expression of ASCL1” value ([3]; positive, model optimized for maximum expression of ASCL1 at 1700, FIG. 9) of the same compound?
Its value is 12.7.
